The record followed here is patent US10869940B2, “Targeted photoacoustic compounds, formulations, and uses thereof” (The Board of Trustees of the Leland Stanford Junior …, priority 2015, dated 2020).

In the experiment the target is T1, PSMA expressing PC3 PiP cells (Homo sapiens, UniProt Q04609).
T1 construct: expressed in transfected cells; host or cells: PC3 PIP cells
The experiment is described as follows: Binding of the PSMA targeting photoacoustic compound to PSMA-expressing PC3 PIP cells.

T1 sequence (Q04609 whole entry): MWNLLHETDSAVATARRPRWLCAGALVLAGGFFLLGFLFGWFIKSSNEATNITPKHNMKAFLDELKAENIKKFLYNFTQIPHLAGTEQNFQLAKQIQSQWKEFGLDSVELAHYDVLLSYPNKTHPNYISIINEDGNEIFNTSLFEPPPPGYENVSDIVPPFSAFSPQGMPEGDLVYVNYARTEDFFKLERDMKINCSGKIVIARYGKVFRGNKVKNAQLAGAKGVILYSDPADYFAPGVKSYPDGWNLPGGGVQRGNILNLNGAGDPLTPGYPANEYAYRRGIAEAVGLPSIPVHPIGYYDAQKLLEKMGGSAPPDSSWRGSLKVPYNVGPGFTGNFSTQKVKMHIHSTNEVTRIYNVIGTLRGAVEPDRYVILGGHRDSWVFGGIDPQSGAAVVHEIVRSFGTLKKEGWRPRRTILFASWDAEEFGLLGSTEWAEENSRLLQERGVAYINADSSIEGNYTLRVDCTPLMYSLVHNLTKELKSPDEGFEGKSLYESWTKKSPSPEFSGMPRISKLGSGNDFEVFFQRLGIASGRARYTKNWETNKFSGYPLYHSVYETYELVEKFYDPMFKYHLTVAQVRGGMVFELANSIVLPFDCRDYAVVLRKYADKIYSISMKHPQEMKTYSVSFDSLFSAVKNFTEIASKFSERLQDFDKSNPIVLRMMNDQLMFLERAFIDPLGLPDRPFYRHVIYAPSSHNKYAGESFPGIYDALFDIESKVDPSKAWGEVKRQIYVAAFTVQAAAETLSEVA

In the case of `O=C(O)CCC(CP(=O)(O)O)C(=O)O` (stereo not shown) [2-PMPA, 2-(phosphonomethyl)pentane-1,5 dioic acid], the “blocking of binding to PC3 PIP cells by co-incubation with 2-PMPA” value is “efficiently blocked”.
